# Test results from article PMC8480782, “Efficient Dimerization Disruption of Leishmania infantum Trypanothione Reductase by Triazole-phenyl-thiazoles” (Journal of Medicinal Chemistry, 2021).
# Read-outs that look alike come from different tables or passages of the source.
# What was measured:
# HepG2 cells = experiment: Cellular toxicity, crystal violet assay; assay type: cell-based; settings: Homo sapiens, read-out: EC50 HepG2
# How it was run: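 HepG2 cells in DMEM with 10% FCS were exposed to compounds at 10^5 cells/mL for 24 h at 37 °C and 5% CO2. Remaining cells were stained with crystal violet, solubilized in 1% SDS and read at 570 nm. EC50 was obtained by nonlinear regression from triplicates in at least three independent experiments.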
# LiTryR dimer = target: T1, LiTryR dimer (Leishmania infantum, UniProt A4HSF7); experiment: biochemical; settings: for IC50: 400 nM LiTryR, 16 h at 37 °C, read-out: IC50^dim, LiTryR monomer displacement (dimer quantitation ELISA); for inhibition at 20 µM: read-out: Percentage of inhibition (dimerization) observed at 20 μM, 20 μM compound
# T1 construct: made in house; host or cells: E. coli BL21 (DE3) Rossetta (co-transformed with both plasmids)
# T1 sequence (A4HSF7 1-491): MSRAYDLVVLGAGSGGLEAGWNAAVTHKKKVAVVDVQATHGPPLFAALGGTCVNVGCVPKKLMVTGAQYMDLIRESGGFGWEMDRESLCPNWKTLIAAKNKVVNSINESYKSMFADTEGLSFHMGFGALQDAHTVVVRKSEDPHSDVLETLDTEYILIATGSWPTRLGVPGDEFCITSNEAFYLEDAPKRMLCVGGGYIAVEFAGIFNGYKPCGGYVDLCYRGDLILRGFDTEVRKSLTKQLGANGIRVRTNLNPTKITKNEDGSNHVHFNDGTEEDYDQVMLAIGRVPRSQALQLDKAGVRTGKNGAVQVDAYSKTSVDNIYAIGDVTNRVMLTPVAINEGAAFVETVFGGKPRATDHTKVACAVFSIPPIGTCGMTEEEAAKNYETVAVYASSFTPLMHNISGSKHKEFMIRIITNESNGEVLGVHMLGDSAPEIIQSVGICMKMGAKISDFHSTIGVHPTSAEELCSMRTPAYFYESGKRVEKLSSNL
# LiTryR = target: T2, LiTryR (Leishmania infantum, UniProt A4HSF7); experiment: biochemical; assay type: biochemical; settings: for IC50: LiTryR, 1 μM TS2, maximum assayed 75 μM, read-out: IC50^act, TryR oxidoreductase activity
# T2 construct: HIS (N); made in house; host or cells: E. coli BL21 (DE3) Rossetta
# T2 sequence (A4HSF7 1-491): as above
# How it was run: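 Recombinant HIS- or HIS-FLAG-tagged LiTryR (7 nM, E. coli-expressed) in DTNB-coupled assay at 26 °C, pH 7.5 HEPES with NADP+ 30 μM, DTNB 25 μM, NADPH 150 μM, TS2 1 μM, 1.75% DMSO. Reaction started with NADPH/TS2; TNB formation followed at 412 nm, data fitted by nonlinear regression.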
# [1] = HepG2, 24 h, crystal violet method
Structure (SMILES),EC50 (HepG2 cells; [1]) [µM],IC50 (LiTryR dimer) [µM],inhibition at 20 µM (LiTryR dimer) [%],IC50 (LiTryR) [µM],"EC50 (HepG2 cells; HepG2, 24 h) [µM]","fold more potent than 12n, IC50^dim (LiTryR dimer; versus monomeric 12n) [fold]","fold more potent than 12n, IC50^act (LiTryR; versus monomeric 12n) [fold]"
"NCCCCc1cn(-c2ccc(-c3nc(CCc4ccc5ccccc5c4)cs3)c(OCCN3CCNC3=O)c2)nn1.O=C(O)C(F)(F)F [12b, 1-(2-(5-(4-(4-Ammoniumbutyl)-1H-1,2,3-triazol-1-yl)-2-(4-(2-(naphthalen-2-yl)ethyl)thiazol-2-yl)phenoxy)ethyl)imidazolidin-2-one 2,2,2-Trifluoroacetate]",33.3 ± 2.7,7.1 ± 0.6,73,5.9 ± 1.1,,,
"NCCCCc1cn(-c2ccc(-c3nc(CCc4ccc(-c5ccccc5)cc4)cs3)c(OCCN3CCNC3=O)c2)nn1.O=C(O)C(F)(F)F [12c, 1-(2-(2-(4-(2-([1,1′-Biphenyl]-4-yl)ethyl)thiazol-2-yl)-5-(4-(4-ammoniumbutyl)-1H-1,2,3-triazol-1-yl)phenoxy)ethyl)imidazolidin-2-one 2,2,2-Trifluoroacetate]",43.1 ± 2.6,4.8 ± 0.6,78,10.9 ± 1.8,,,
NCCCc1cn(-c2ccc(-c3nc(CCc4ccc(-c5ccccc5)cc4)cs3)c(OCCN3CCNC3=O)c2)nn1.O=C(O)C(F)(F)F [12i],60.4 ± 3,10.8 ± 0.1,,19.7 ± 3.8,,,
NCCCCc1cn(-c2ccc(-c3nc(-c4ccccc4)cs3)c(OCCN3CCNC3=O)c2)nn1.O=C(O)C(F)(F)F [12n],16.4 ± 2.3,29 ± 1.5,,11.2 ± 0.2,,,
NCCCCc1cn(-c2ccc(-c3nc(CCc4ccc5c(c4)CCCN5)cs3)c(OCCN3CCNC3=O)c2)nn1.O=C(O)C(F)(F)F.O=C(O)C(F)(F)F [12q],43.3 ± 1,> 75,,6.9 ± 2.1,,,
NCCCCc1cn(-c2ccc(-c3nc(CCc4ccc5c(c4)CCO5)cs3)c(OCCN3CCNC3=O)c2)nn1.O=C(O)C(F)(F)F [12r],29.4 ± 0.7,10.7 ± 0.5,,11.9 ± 0.6,,,
NCCCCc1cn(-c2ccc(-c3nc(CCc4ccc5oc6ccccc6c5c4)cs3)c(OCCN3CCNC3=O)c2)nn1.O=C(O)C(F)(F)F [12s],,8.8 ± 0.2,,6.6 ± 1.9,> 75,,
"NCCCCc1cn(-c2ccc(-c3nc(-c4ccccc4)c(-c4ccccc4)s3)c(OCCN3CCNC3=O)c2)nn1.O=C(O)C(F)(F)F [19a, 1-(2-(5-(4-(4-Ammoniobutyl)-1H-1,2,3-triazol-1-yl)-2-(4,5-diphenylthiazol-2-yl)phenoxy)ethyl)imidazolidin-2-one 2,2,2-Trifluoroacetate]",26.5 ± 4.1,7.1 ± 1.7,,4.3 ± 1,,,
"NCCCCc1cn(-c2ccc(-c3nc(-c4ccc(Oc5ccccc5)cc4)c(-c4ccccc4)s3)c(OCCN3CCNC3=O)c2)nn1.O=C(O)C(F)(F)F [19c, 1-(2-(5-(4-(4-Ammoniobutyl)-1H-1,2,3-triazol-1-yl)-2-(4-([4-phenyloxyphenyl]-1-yl)-5-phenylthiazol-2-yl)phenoxy)ethyl)imidazolidin-2-one 2,2,2-Trifluoroacetate]",≥ 75,9 ± 0.5,,16.9 ± 2.7,,,
"NCCNCc1nccn1-c1ccc(-c2nc(CCc3ccc4ccccc4c3)cs2)c(OCCN2CCNC2=O)c1 [compound 2, reference compound]",27.1 ± 2.4,,~30,5.1 ± 0.4,,,
"NCCNCc1nccn1-c1ccc(-c2nc(CCc3ccc(-c4ccccc4)cc3)cs2)c(OCCN2CCNC2=O)c1 [compound 3, reference compound]",14.2 ± 0.9,,~30,8.6 ± 1.4,,,
"NCCCCc1cn(-c2ccc(-c3nc(-c4cccc(-c5csc(-c6ccc(-n7cc(CCCCN)nn7)cc6OCCN6CCNC6=O)n5)c4)cs3)c(OCCN3CCNC3=O)c2)nn1.O=C(O)C(F)(F)F.O=C(O)C(F)(F)F [compound 22, 1,1′-((((1,3-Phenylenebis(thiazole-4,2-diyl))bis(5-(4-(4-ammoniobutyl)-1H-1,2,3-triazol-1-yl)-2,1-phenylene))bis(oxy))bis(ethane-2,1-diyl))bis(imidazolidin-2-one)bis(2,2,2-trifluoroacetate)]",30.5 ± 4.1,8 ± 0.2,,0.4 ± 0.03,,4,28
